Measurements: the supplement of paper PMC4862054

The compounds below were run on MDA-MB-468 (assay: normalised response (% of control), CellTiter-Glo; higher = more viable cells (100 = DMSO, 0 = benzethonium chloride kill control)). Conditions: incubation time: 72 h.
Protocol: (§1)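 DSRT, 72 h incubation, CellTox Green / CellTiter-Glo readout. Signal is normalised to DMSO and benzethonium chloride controls. Value is the normalised response at dose 3.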

**Q.** For `O=C(O)C1(C(=O)O)CCC1.[NH2-].[NH2-].[Pt+2]` [Carboplatin] (100 nM), which normalised response is on record?
**A.** 93.9%

**Q.** `Nc1nc(F)nc2c1ncn2[C@@H]1O[C@H](CO)[C@@H](O)[C@@H]1O` [Fludarabine] (100 nM) was tested. Which normalised response did it give?
**A.** 113%

**Q.** `CNC(=O)c1cc(Oc2ccc(NC(=O)Nc3cc(C(C)(C)C)nn3-c3ccc4ncccc4c3)c(F)c2)ccn1` [Rebastinib] (10 nM) was tested. Which normalised response did it give?
**A.** 94.7%

**Q.** `COc1cc2c(Oc3ccc4[nH]c(C)cc4c3F)ncnc2cc1OCCCN1CCCC1` [Cediranib] (10 nM) was tested. Which normalised response did it give?
**A.** 104%

**Q.** For `C=CC(=O)N1CCC[C@@H](n2nc(-c3ccc(Oc4ccccc4)cc3)c3c(N)ncnc32)C1` [Ibrutinib] (10 nM), which normalised response is on record?
**A.** 98.4%

**Q.** Which normalised response does the source give for `O=C(Cc1ccc(-c2ccc(OCCN3CCOCC3)cc2)cn1)NCc1ccccc1` [KX2-391] (100 nM) here?
**A.** 44.6%

**Q.** Which normalised response does the source give for `O=C(/C=C/c1cccnc1)NCCCCC1CCN(C(=O)c2ccccc2)CC1` [Daporinad] (10 nM) here?
**A.** 1.06%

**Q.** For `Nc1ncn([C@H]2C[C@H](O)[C@@H](CO)O2)c(=O)n1` [Decitabine] (100 nM), which normalised response is on record?
**A.** 52.5%

**Q.** Which normalised response does the source give for `CC[C@@H]1C(=O)N(C)c2cnc(Nc3ccc(C(=O)NC4CCN(C)CC4)cc3OC)nc2N1C1CCCC1` [BI 2536] (10 nM) here?
**A.** 37.3%

What follows are compounds tested on MFM-223 in the same assay as above. Conditions: incubation time: 72 h.
Protocol: as §1

**Q.** With `O=C(O)C1(C(=O)O)CCC1.[NH2-].[NH2-].[Pt+2]` [Carboplatin] (100 nM) as the compound, how does the normalised response read?
**A.** 99.2%

**Q.** `Nc1nc(F)nc2c1ncn2[C@@H]1O[C@H](CO)[C@@H](O)[C@@H]1O` [Fludarabine] (100 nM) was tested. Which normalised response did it give?
**A.** 111%

**Q.** With `CNC(=O)c1cc(Oc2ccc(NC(=O)Nc3cc(C(C)(C)C)nn3-c3ccc4ncccc4c3)c(F)c2)ccn1` [Rebastinib] (10 nM) as the compound, how does the normalised response read?
**A.** 96.8%

**Q.** Which normalised response does the source give for `COc1cc2c(Oc3ccc4[nH]c(C)cc4c3F)ncnc2cc1OCCCN1CCCC1` [Cediranib] (10 nM) here?
**A.** 107%

**Q.** How did the normalised response turn out when `C=CC(=O)N1CCC[C@@H](n2nc(-c3ccc(Oc4ccccc4)cc3)c3c(N)ncnc32)C1` [Ibrutinib] (10 nM) was run?
**A.** 110%

**Q.** With `O=C(Cc1ccc(-c2ccc(OCCN3CCOCC3)cc2)cn1)NCc1ccccc1` [KX2-391] (100 nM) as the compound, how does the normalised response read?
**A.** 63.1%

**Q.** For `O=C(/C=C/c1cccnc1)NCCCCC1CCN(C(=O)c2ccccc2)CC1` [Daporinad] (10 nM), which normalised response is on record?
**A.** 5.44%

**Q.** With `Nc1ncn([C@H]2C[C@H](O)[C@@H](CO)O2)c(=O)n1` [Decitabine] (100 nM) as the compound, how does the normalised response read?
**A.** 104%

**Q.** `CC[C@@H]1C(=O)N(C)c2cnc(Nc3ccc(C(=O)NC4CCN(C)CC4)cc3OC)nc2N1C1CCCC1` [BI 2536] (10 nM) was tested. Which normalised response did it give?
**A.** 44.3%

Each compound was assayed on SK-BR-3 in the same assay as above. Conditions: incubation time: 72 h.
Protocol: as §1

**Q.** `O=C(O)C1(C(=O)O)CCC1.[NH2-].[NH2-].[Pt+2]` [Carboplatin] (100 nM) was tested. Which normalised response did it give?
**A.** 105%

**Q.** Which normalised response does the source give for `Nc1nc(F)nc2c1ncn2[C@@H]1O[C@H](CO)[C@@H](O)[C@@H]1O` [Fludarabine] (100 nM) here?
**A.** 108%

**Q.** With `CNC(=O)c1cc(Oc2ccc(NC(=O)Nc3cc(C(C)(C)C)nn3-c3ccc4ncccc4c3)c(F)c2)ccn1` [Rebastinib] (10 nM) as the compound, how does the normalised response read?
**A.** 101%

**Q.** For `COc1cc2c(Oc3ccc4[nH]c(C)cc4c3F)ncnc2cc1OCCCN1CCCC1` [Cediranib] (10 nM), which normalised response is on record?
**A.** 104%

**Q.** How did the normalised response turn out when `C=CC(=O)N1CCC[C@@H](n2nc(-c3ccc(Oc4ccccc4)cc3)c3c(N)ncnc32)C1` [Ibrutinib] (10 nM) was run?
**A.** 67.4%

**Q.** For `O=C(Cc1ccc(-c2ccc(OCCN3CCOCC3)cc2)cn1)NCc1ccccc1` [KX2-391] (100 nM), which normalised response is on record?
**A.** 19.5%

**Q.** Which normalised response does the source give for `O=C(/C=C/c1cccnc1)NCCCCC1CCN(C(=O)c2ccccc2)CC1` [Daporinad] (10 nM) here?
**A.** 103%

**Q.** With `Nc1ncn([C@H]2C[C@H](O)[C@@H](CO)O2)c(=O)n1` [Decitabine] (100 nM) as the compound, how does the normalised response read?
**A.** 91.2%

**Q.** Which normalised response does the source give for `CC[C@@H]1C(=O)N(C)c2cnc(Nc3ccc(C(=O)NC4CCN(C)CC4)cc3OC)nc2N1C1CCCC1` [BI 2536] (10 nM) here?
**A.** 15.6%

These compounds were tested on HCC1599 in the same assay as above. Conditions: incubation time: 72 h.
Protocol: as §1

**Q.** With `O=C(O)C1(C(=O)O)CCC1.[NH2-].[NH2-].[Pt+2]` [Carboplatin] (100 nM) as the compound, how does the normalised response read?
**A.** 87.6%

**Q.** With `Nc1nc(F)nc2c1ncn2[C@@H]1O[C@H](CO)[C@@H](O)[C@@H]1O` [Fludarabine] (100 nM) as the compound, how does the normalised response read?
**A.** 122%

**Q.** `CNC(=O)c1cc(Oc2ccc(NC(=O)Nc3cc(C(C)(C)C)nn3-c3ccc4ncccc4c3)c(F)c2)ccn1` [Rebastinib] (10 nM) was tested. Which normalised response did it give?
**A.** 98.3%

**Q.** For `COc1cc2c(Oc3ccc4[nH]c(C)cc4c3F)ncnc2cc1OCCCN1CCCC1` [Cediranib] (10 nM), which normalised response is on record?
**A.** 88.5%

**Q.** Which normalised response does the source give for `C=CC(=O)N1CCC[C@@H](n2nc(-c3ccc(Oc4ccccc4)cc3)c3c(N)ncnc32)C1` [Ibrutinib] (10 nM) here?
**A.** 105%

**Q.** How did the normalised response turn out when `O=C(Cc1ccc(-c2ccc(OCCN3CCOCC3)cc2)cn1)NCc1ccccc1` [KX2-391] (100 nM) was run?
**A.** 32.3%

**Q.** With `O=C(/C=C/c1cccnc1)NCCCCC1CCN(C(=O)c2ccccc2)CC1` [Daporinad] (10 nM) as the compound, how does the normalised response read?
**A.** 4.73%

**Q.** How did the normalised response turn out when `Nc1ncn([C@H]2C[C@H](O)[C@@H](CO)O2)c(=O)n1` [Decitabine] (100 nM) was run?
**A.** 113%

**Q.** For `CC[C@@H]1C(=O)N(C)c2cnc(Nc3ccc(C(=O)NC4CCN(C)CC4)cc3OC)nc2N1C1CCCC1` [BI 2536] (10 nM), which normalised response is on record?
**A.** 92.6%

These compounds were tested on DU-4475 in the same assay as above. Conditions: incubation time: 72 h.
Protocol: as §1

**Q.** For `O=C(O)C1(C(=O)O)CCC1.[NH2-].[NH2-].[Pt+2]` [Carboplatin] (100 nM), which normalised response is on record?
**A.** 99.5%

**Q.** `Nc1nc(F)nc2c1ncn2[C@@H]1O[C@H](CO)[C@@H](O)[C@@H]1O` [Fludarabine] (100 nM) was tested. Which normalised response did it give?
**A.** 106%

**Q.** `CNC(=O)c1cc(Oc2ccc(NC(=O)Nc3cc(C(C)(C)C)nn3-c3ccc4ncccc4c3)c(F)c2)ccn1` [Rebastinib] (10 nM) was tested. Which normalised response did it give?
**A.** 109%

**Q.** Which normalised response does the source give for `COc1cc2c(Oc3ccc4[nH]c(C)cc4c3F)ncnc2cc1OCCCN1CCCC1` [Cediranib] (10 nM) here?
**A.** 104%

**Q.** For `C=CC(=O)N1CCC[C@@H](n2nc(-c3ccc(Oc4ccccc4)cc3)c3c(N)ncnc32)C1` [Ibrutinib] (10 nM), which normalised response is on record?
**A.** 100%
